Measured values from patent publication US9732094B2, “Arylquinazolines” (Merck Patent GmbH, priority 2013, dated 2017).
Read-outs that look alike come from different tables or passages of the source.

What was measured:
DNA-PK = DNA-PK (Homo sapiens (Human), UniProt P78527); assay: DNA-PK assay (biochemical), flashplate 33P-ATP kinase assay
Protocol: A) DNA-PK Assay (Biochemical)
The kinase assay was carried out in streptavidin-coated […] microtitre flashplates. […] The reaction was stopped using 50 μl/well of 200 mM EDTA. After incubation for a further 30 min at room temperature, the liquid was removed. Each well was washed three times with 100 μl of 0.9% saline solution. A nonspecific reaction (blank value) was determined using 10 μM of an innate kinase inhibitor. The radioactivity measurement was carried out using a TopCount. IC50 values were calculated in RS1.

Kv11.1 (hERG) = Kv11.1 (hERG) (Homo sapiens (Human), UniProt Q12809); assay: Kv11.1 (hERG) ion channel activity (patch clamp assay), HEK293 cells transfected with hERG gene
[1] = biological target: DNA-PK phosphorylation at serine 2056 (Homo sapiens (Human), UniProt P78527); assay: DNA-PK phosphorylation at serine 2056 (cellular), bleomycin-treated HCT116 cells, ELISA; assay type: cell-based; conditions: read-out: IC50 pDNA-PK
Protocol: HCT116 cells were cultivated at 37° C. and 10% CO2 in MEM alpha medium with 10% of foetal calf serum and 2 mM glutamine. The cells were detached from the base of the culture vessels with the aid of trypsin/EDTA, centrifuged off in centrifuge tubes, taken up in fresh medium, and the cell density was determined. 100,000 cells were sown in 1 ml of culture medium per cavity of a 24-well cell culture plate and cultivated overnight. Next day, 10 μM bleomycin (DNA intercalator and inductor of DNA double-strand breaks) and test substances in fresh culture medium were added to the cells, and these were cultivated for a further six hours. […] The 96-well ELISA plates were subsequently treated with a detection antibody (Abcam ab79444: total DNA-PK) and a streptavidin-HRP conjugate. The development of the enzymatic reaction was carried out with the aid of a chemiluminescent reagent, the chemiluminescence was measured with the aid of a Mithras LB940. The signals with the phospho-DNA-PK-specific antibody were standardised to the signal with the antibody against the total protein DNA-PKc. […] The DMSO control was used as blank.

[2] = human, HEK293 cells stably transfected with the hERG gene, Ki [Kv1.11 hERG], patch clamp, HEK293 transfected with hERG gene
[3] = cellular, HCT116 cells, 10 μM bleomycin, six hours
[4] = Ki [Kv1.11 hERG], patch clamp, HEK293 transfected with hERG gene
[5] = read-out: Ki [Kv1.11 hERG], patch clamp, HEK293 transfected with hERG gene
[6] = read-out: Ki [Kv1.11 hERG], hERG patch clamp assay (cells without asterisk)
[7] = cellular DNA-PK phosphorylation at serine 2056, HCT116
[8] = human, HEK293 cells stably transfected with the hERG gene, Ki [Kv1.11 hERG], hERG patch clamp assay (cells without asterisk)

Sequence of Kv11.1 (hERG) (Q12809 whole entry): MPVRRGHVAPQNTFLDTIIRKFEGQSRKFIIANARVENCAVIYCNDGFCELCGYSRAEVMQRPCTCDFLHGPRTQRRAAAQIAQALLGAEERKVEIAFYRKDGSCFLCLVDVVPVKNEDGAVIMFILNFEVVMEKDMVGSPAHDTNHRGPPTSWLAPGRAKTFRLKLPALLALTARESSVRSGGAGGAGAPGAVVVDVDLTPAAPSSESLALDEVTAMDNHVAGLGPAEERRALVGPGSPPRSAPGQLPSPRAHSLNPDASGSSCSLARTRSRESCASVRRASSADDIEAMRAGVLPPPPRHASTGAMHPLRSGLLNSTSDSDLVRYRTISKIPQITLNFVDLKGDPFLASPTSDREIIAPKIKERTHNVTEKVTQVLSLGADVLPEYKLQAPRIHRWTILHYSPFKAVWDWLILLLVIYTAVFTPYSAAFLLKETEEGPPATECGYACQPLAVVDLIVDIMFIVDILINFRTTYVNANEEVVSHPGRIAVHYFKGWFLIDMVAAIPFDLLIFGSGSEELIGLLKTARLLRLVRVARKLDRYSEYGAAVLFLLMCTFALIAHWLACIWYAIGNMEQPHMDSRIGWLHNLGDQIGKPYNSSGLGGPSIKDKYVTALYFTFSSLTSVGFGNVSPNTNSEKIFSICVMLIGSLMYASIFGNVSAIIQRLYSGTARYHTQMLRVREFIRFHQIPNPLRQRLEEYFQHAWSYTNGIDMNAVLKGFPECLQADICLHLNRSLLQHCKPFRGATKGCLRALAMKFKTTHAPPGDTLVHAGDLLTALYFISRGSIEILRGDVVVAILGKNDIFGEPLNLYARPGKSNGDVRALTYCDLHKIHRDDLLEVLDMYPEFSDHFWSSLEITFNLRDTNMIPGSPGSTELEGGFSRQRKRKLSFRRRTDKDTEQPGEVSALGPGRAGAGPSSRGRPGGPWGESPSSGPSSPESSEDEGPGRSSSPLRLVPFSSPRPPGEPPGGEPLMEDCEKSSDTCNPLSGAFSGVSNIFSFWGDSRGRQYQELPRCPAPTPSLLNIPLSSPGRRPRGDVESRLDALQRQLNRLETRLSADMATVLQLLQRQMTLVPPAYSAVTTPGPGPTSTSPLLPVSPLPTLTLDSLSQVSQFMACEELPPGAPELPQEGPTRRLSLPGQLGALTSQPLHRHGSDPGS

Row | SMILES | IC50 (DNA-PK; enzymatic, 5 μM ATP) [µM] | IC50 [1, 3] [µM] | Ki (Kv11.1 (hERG); [4]) [µM] | further results
1 | OC(c1ccc(F)c(-c2ncnc3cc(N4CCOCC4)sc23)c1)c1nccnc1Cl (single isomer, unassigned) [Example 24, (3-Chloro-pyrazin-2-yl)-[4-fluoro-3-(6-morpholin-4-yl-thieno-[3,2-d}pyrimidin-4-yl)-phenyl]methanol] | < 0.003 | < 0.5 |  | Ki (Kv11.1 (hERG); [2]): 15 to 25 µM
2 | OC(c1cccnn1)c1cc(-c2ncnc3cc(N4CCOCC4)ccc23)c(F)cc1Cl (single isomer, unassigned) [Example 29, [2-Chloro-4-fluoro-5-(7-morpholin-4-yl-quinazolin-4-yl)phenyl]-pyridazin-3-ylmethanol] | 0.007 to 0.03 | 10 to 30 |  | Ki (Kv11.1 (hERG); [2]): 15 to 25 µM
3 | Cn1nc(C(O)c2cc(-c3ncnc4cc(N5CCOCC5)ccc34)c(F)cc2Cl)ccc1=O (single isomer, unassigned) [Example 44, 6-{[2-Chloro-4-fluoro-5-(7-morpholin-4-yl-quinazolin-4-yl)phenyl]-hydroxymethyl}-2-methyl-2H-pyridazin-3-one] | 0.007 to 0.03 | 5 to 10 | 15 to 25 | 
4 | Cn1nc(C(O)c2cc(-c3ncnc4cc(N5CCOCC5)ccc34)c(F)cc2Cl)ccc1=O (single isomer, unassigned) [Example 45, 6-{[2-Chloro-4-fluoro-5-(7-morpholin-4-yl-quinazolin-4-yl)phenyl]-hydroxymethyl}-2-methyl-2H-pyridazin-3-one] | < 0.003 | < 0.5 |  | Ki (Kv11.1 (hERG); [5]): 15 to 25 µM
5 | CC(C#N)Oc1ccc(C(O)c2cc(-c3ncnc4cc(N5CCOCC5)ccc34)c(F)cc2Cl)nn1 (single isomer, unassigned) [Example 102, 2-(6-{[2-Chloro-4-fluoro-5-(7-morpholin-4-yl-quinazolin-4-yl)-phenyl)hydroxy-methyl}pyridazin-3-yloxy)propionitrile] | < 0.003 | < 0.5 | 15 to 25 | 
6 | CC(C#N)Oc1ccc(C(O)c2cc(-c3ncnc4cc(N5CCOCC5)ccc34)c(F)cc2Cl)nn1 (single isomer, unassigned) [Example 103, 2-(6-{[2-Chloro-4-fluoro-5-(7-morpholin-4-yl-quinazolin-4-yl)-phenyl]hydroxy-methyl}pyridazin-3-yloxy)propionitrile] | > 0.03 | 10 to 30 |  | Ki (Kv11.1 (hERG); [5]): > 25 µM
7 | CC(C#N)Oc1ccc(C(O)c2cc(-c3ncnc4cc(N5CCOCC5)ccc34)c(F)cc2Cl)nn1 (single isomer, unassigned) [Example 104, 2-(6-{[2-Chloro-4-fluoro-5-(7-morpholin-4-yl-quinazolin-4-yl)-phenyl]hydroxy-methyl}pyridazin-3-yloxy)propionitrile] | 0.007 to 0.03 | 0.5 to 5 |  | Ki (Kv11.1 (hERG); [5]): 15 to 25 µM
8 | COc1ccc(C(O)c2cc(-c3ncnc4cc(N5CCOCC5)sc34)c(F)cc2Cl)nn1 (single isomer, unassigned) [Example 126, [2-Chloro-4-fluoro-5-(6-morpholin-4-ylthieno[3,2-d}-pyrimidin-4-yl)-phenyl]-(6-methoxy-pyridazin-3-yl)-methanol] | < 0.003 | < 0.5 |  | Ki (Kv11.1 (hERG); [2]): 10 to 15 µM
9 | COc1ccc(C(O)c2cc(-c3ncnc4cc(N5CCOCC5)cc(F)c34)c(F)cc2Cl)nn1 (single isomer, unassigned) [Example 271, [2-Chloro-4-fluoro-5-(5-fluoro-7-morpholin-4-yl-quinazolin-4-yl)-phenyl]-(6-methoxy-pyridazin-3-yl)-methanol] |  |  |  | IC50 (DNA-PK; biochemical DNA-PK assay): < 0.003 µM; Ki (Kv11.1 (hERG); [6]): > 25 µM; IC50 [1, 7]: < 0.5 µM
10 | Cn1c(C(O)c2cc(-c3ncnc4cc(N5CCOCC5)ccc34)ccc2Cl)cccc1=O (single isomer, unassigned) [Example 363, 6-{[2-Chloro-5-(7-morpholin-4-yl-quinazolin-4-yl)-phenyl]hydroxy-methyl}-1-methyl-1H-pyridin-2-one] |  |  |  | IC50 (DNA-PK; biochemical DNA-PK assay): 0.007 to 0.03 µM; Ki (Kv11.1 (hERG); Ki [Kv1.11 hERG], hERG patch clamp assay (cells without asterisk)): 15 to 25 µM; IC50 [1, 7]: 5 to 10 µM
11 | Cn1c(C(O)c2cc(-c3ncnc4cc(N5CCOCC5)ccc34)ccc2Cl)cccc1=O (single isomer, unassigned) [Example 364, 6-{[2-Chloro-5-(7-morpholin-4-yl-quinazolin-4-yl)-phenyl]hydroxy-methyl}-1-methyl-1H-pyridin-2-one] |  |  |  | IC50 (DNA-PK; biochemical DNA-PK assay): < 0.003 µM; Ki (Kv11.1 (hERG); [6]): > 25 µM; IC50 [1, 7]: < 0.5 µM
12 | OC(c1cc(-c2ncnc3cc(N4CCOCC4)ccc23)c(F)cc1Cl)c1nccn2ccnc12 (single isomer, unassigned) [Example 395, [2-Chloro-4-fluoro-5-(7-morpholin-4-yl-quinazolin-4-yl)-phenyl)imidazo-[1,2-a]pyrazin-8-yl-methanol] |  |  |  | IC50 (DNA-PK; biochemical DNA-PK assay): 0.007 to 0.03 µM; Ki (Kv11.1 (hERG); [8]): 15 to 25 µM; IC50 [1, 7]: 5 to 10 µM
13 | OC(c1cc(-c2ncnc3cc(N4CCOCC4)ccc23)c(F)cc1Cl)c1nccn2ccnc12 (single isomer, unassigned) [Example 396] |  |  |  | IC50 (DNA-PK; biochemical DNA-PK assay): 0.003 to 0.007 µM; Ki (Kv11.1 (hERG); [6]): > 25 µM; IC50 [1, 7]: < 0.5 µM
14 | OC(c1cccnn1)c1cc(-c2ncnc3cc(N4CCOCC4)ccc23)ccc1Cl (single isomer, unassigned) [Example 469, [2-Chloro-5-(7-morpholin-4-yl-quinazolin-4-yl)-phenyl]pyridazin-3-yl-methanol] |  |  |  | IC50 (DNA-PK; biochemical DNA-PK assay): > 0.03 µM; Ki (Kv11.1 (hERG); [8]): 10 to 15 µM; IC50 [1, 7]: 10 to 30 µM
15 | OC(c1cccnn1)c1cc(-c2ncnc3cc(N4CCOCC4)ccc23)ccc1Cl (single isomer, unassigned) [Example 470, [2-Chloro-5-(7-morpholin-4-yl-quinazolin-4-yl)-phenyl]pyridazin-3-yl-methanol] |  |  |  | IC50 (DNA-PK; biochemical DNA-PK assay): 0.003 to 0.007 µM; Ki (Kv11.1 (hERG); [6]): > 25 µM; IC50 [1, 7]: < 0.5 µM
16 | OC(c1ccc(F)c(-c2ncnc3cc(N4CCOCC4)ccc23)c1)c1c(F)cncc1F (stereo not drawn) [Example 1, (3,5-Difluoropyridin-4-yl)-[4-fluoro-3-(7-morpholin-4-ylquinazolin-4-yl)phenyl]methanol] | 0.003 to 0.007 | 0.5 to 5 | 15 to 25 | 
17 | OC(c1ccc(F)c(-c2ncnc3cc(N4CCOCC4)ccc23)c1)c1cncc(F)c1Cl (stereo not drawn) [Example 2, (4-Chloro-5-fluoropyridin-3-yl)-[4-fluoro-3-(7-morpholin-4-ylquinazolin-4-yl)phenyl]methanol] | 0.003 to 0.007 | < 0.5 | 10 to 15 | 
18 | COc1ccnnc1C(O)c1cc(-c2ncnc3cc(N4CCOCC4)ccc23)c(F)cc1Cl (stereo not drawn) [Example 3, [2-Chloro-4-fluoro-5-(7-morpholin-4-yl-quinazolin-4-yl)phenyl]-(4-methoxy-pyridazin-3-yl)methanol] | 0.003 to 0.007 | 0.5 to 5 |  | Ki (Kv11.1 (hERG); [5]): > 25 µM
19 | O=c1[nH]ccnc1C(O)c1ccc(F)c(-c2ncnc3cc(N4CCOCC4)ccc23)c1 (stereo not drawn) [Example 5, 3-{[4-Fluoro-3-(7-morpholin-4-yl-quinazolin-4-yl)phenyl]-hydroxymethyl]-1H-pyrazin-2-one] | > 0.03 | 10 to 30 | 15 to 25 | 
20 | COc1cc(C(O)c2ccc(F)c(-c3ncnc4cc(N5CCOCC5)ccc34)c2)c(Cl)nn1 (stereo not drawn) [Example 7, (3-Chloro-6-methoxy-pyridazin-4-yl)-[4-fluoro-3-(7-morpholin-4-yl-quinazolin-4-yl)phenyl]-methanol] | 0.003 to 0.007 | < 0.5 | 15 to 25 | 
21 | COc1cc(Cl)nnc1C(O)c1cc(-c2ncnc3cc(N4CCOCC4)ccc23)c(F)cc1Cl (stereo not drawn) [Example 8, [2-Chloro-4-fluoro-5-(7-morpholin-4-yl-quinazolin-4-yl)phenyl]-(6-chloro-4-methoxy-pyridazin-3-yl)methanol] | 0.007 to 0.03 | 0.5 to 5 | 10 to 15 | 
22 | COc1cc(Cl)nnc1C(O)c1ccc(F)c(-c2ncnc3cc(N4CCOCC4)ccc23)c1 (stereo not drawn) [Example 10, (6-Chloro-4-methoxy-pyridazin-3-yl)-[4-fluoro-3-(7-morpholin-4-yl-quinazolin-4-yl)phenyl]-methanol] | 0.003 to 0.007 | < 0.5 |  | Ki (Kv11.1 (hERG); [5]): > 25 µM
23 | CC(C)(C)Oc1nccnc1C(O)c1ccc(F)c(-c2ncnc3cc(N4CCOCC4)ccc23)c1 (stereo not drawn) [Example 13, (3-tert-Butoxy-pyrazin-2-yl)-[4-fluoro-3-(7-morpholin-4-yl-quinazolin-4-yl)phenyl]-methanol] | > 0.03 | 10 to 30 | 10 to 15 | 
24 | OC(c1ccc(F)c(-c2ncnc3cc(N4CCOCC4)ccc23)c1)c1nccnc1N1CCCC1 (stereo not drawn) [Example 14, [4-Fluoro-3-(7-morpholin-4-yl-quinazolin-4-yl)phenyl]-(3-pyrrolidin-1-yl-pyrazin-2-yl)methanol] | 0.003 to 0.007 | 0.5 to 5 |  | Ki (Kv11.1 (hERG); [5]): > 25 µM
